Source: PMC10107299, “Neutralizing the Impact of the Virulence Factor LecA from Pseudomonas aeruginosa on Human Cells with New Glycomimetic Inhibitors” (Angewandte Chemie (International Ed. in English), 2023)
Where “and” joins values, the source holds several entries; their conditions need not be identical. Equal entries are not always repeated.

Key:
LecA [1] = biological target: T1, LecA (Pseudomonas aeruginosa, UniProt Q05097); experiment: Direct binding to immobilized LecA by surface plasmon resonance (SPR); conditions: for kon: SPR single-cycle kinetics, 25 °C, N=3 (I1 N=1); for Relative potency r.p. (SPR): compared to respective monovalent compound in each series
T1 construct: made in house
Experimental: K d values were oscillating with the number of methylene units present in the linker, presumably linked to the zig‐zag geometry of the hydrocarbon chain.
Expression and purification of LecA as well as competitive binding by fluorescence polarization was performed as described by Joachim et al..[9] […]
Surface plasmon resonance experiments were performed on a BIACORE X100 instrument (GE Healthcare) at 25 °C as described by Zahorska et. al..[8] Averages and standard deviations were calculated from three independent experiments. […]
Figure S3: SPR of divalent LecA ligands from benzene series. Sensorgrams obtained from SPR single-cycle kinetics experiments. Five different concentrations of each compound (0, 10, 50, 100, 200 nM) were sequentially injected to obtain the experimental sensorgrams (blue lines), which were then fitted by a 1:1 model (orange) on BIACORE evaluation software. […]
Figure S4: SPR of divalent LecA ligands from pyridine and sulfonated series. Sensorgrams obtained from SPR single-cycle kinetics experiments. Five different concentrations of each compound (0, 10, 50, 100, 200 nM) were sequentially injected to obtain the experimental sensorgrams (blue lines), which were then fitted by a 1:1 model (orange) on BIACORE evaluation software.
(also on this page, place not known: Response (RU)0 Response (RU)0 Response (RU) Response (RU) Response (RU) Response (RU) 030060090012001500) […]

LecA [2] = biological target: T1, LecA; experiment: Competitive binding assay based on fluorescence polarization
Experimental: All synthesized galactosides were then evaluated for LecA inhibition using a competitive binding assay based on fluorescence polarization (Figure S1).[24]
Expression and purification of LecA as well as competitive binding by fluorescence polarization was performed as described by Joachim et al..[9] The assay was performed in TBS/Ca2+ buffer (20 mM Tris, 137 mM NaCl, 2.6 mM KCl at pH 7.4 supplemented with 1 mM CaCl2) in presence of 25% DMSO. Averages and standard deviations were calculated from at least three independent experiments. […]
RR OR In h i b i to r [µ M ]
R R In h i b i to r [µ M ] […]
R In h i b i to r [µ M ] 30 L2
30 F2 40 K2 In h i b i to r [µ M ] […]
In h i b i to r [µ M ] In h i b i to r [µ M ]
Figure S1: Evaluation of amide divalent LecA ligands in a competitive binding assay based on fluorescence […]
representative experiment is shown or each series. Averages and standard deviations from at least three independent titrations of triplicates each.
[…] Fluorescence polarization [mP] -1 0 1 2 3 0 1001010 Me-α-Gal pNO2-Ph-β-Gal 1000 Inhibitor [µM] Fluorescence polarization [mP])

LecA [3] = biological target: T1, LecA; experiment: Inhibition of LecA-AF488 binding to H1299 cells, flow cytometry; format: cell-based; conditions: for IC50: IC50 for inhibition of LecA binding to H1299 cells, N=3; for IC50 / Decrease of LecA binding to H1299 cells: 0.16 μM LecA-AF488, flow cytometry; for Inhibition of lectin binding to the cells: 7.5 μM and above, flow cytometry
Experimental: Next, we investigated the two most promising compounds H2 and L2 for their efficacy to inhibit LecA binding to H1299 human lung epithelial cells using flow cytometry and confocal microscopy. To this end, LecA was fluorescently labelled with Alexa Fluor 488 NHS ester (LecA‐AF488), incubated with varying concentrations of the inhibitors (100 nM to 10 μM) and subsequently added to the cells.
For flow cytometry analysis, inhibitors were preincubated with 0.16 μM LecA prior addition to the H1299 cells. After incubation for 30 min, fluorescence intensity was recorded at the flow cytometer. […] In contrast, 10 μM of the corresponding monovalent ligands G2 and K2 were required for 50 % inhibition (Figure S10).
H1299 cells were detached with 2 mL of 1.5 mM EDTA in PBS, 1.2 × 10^5 cells were counted and transferred to a U-bottom 96 well plate (Sarstedt AG & Co. KG, Numbrecht, Germany).
For flow cytometry assay, the optimal LecA concentration was established following a lectin titration (0.04–0.5 µM LecA-AF488) with H1299 cells. The histogram of fluorescence intensity […]
µM LecA-AF488 was used in flow cytometry experiments. LecA-AF488 was preincubated with PNPG, G2, K2, H2 or L2 in RPMI medium, for 20 min at room temperature and protected from light. The ligand-LecA solution was then added to the cells and further incubated for 30 min at 4 °C. H1299 cells were resuspended with medium in absence of lectin or inhibitor represented the negative assay control, while cells incubated only with LecA-AF488 (no inhibitor) served as the positive control. Subsequently, cells were centrifuged at 1600 × g for 3 min at 4 °C to remove unbound lectin. The samples were then washed twice with ice-cold FACS buffer (PBS (-/-) supplemented with 3% FCS (v/v)). After the last washing step, the cells were re-suspended in FACS buffer and transferred to FACS tubes (Kisker Biotech GmbH Co. KG, Steinfurt, Germany) on ice and in absence of light. The fluorescence intensity of treated cells was measured with FACS Gallios from Beckman Coulter. […]

T1 sequence (Q05097 whole entry): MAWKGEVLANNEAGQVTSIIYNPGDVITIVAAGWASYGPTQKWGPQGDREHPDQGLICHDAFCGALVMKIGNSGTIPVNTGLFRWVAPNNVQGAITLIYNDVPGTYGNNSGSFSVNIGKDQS

Structure (SMILES)	Kd (LecA [1])	koff (LecA [1])	kon (LecA [1])	Relative potency r.p. (SPR) (LecA [1])	IC50 (LecA [2])	IC50 (LecA [3])	Decrease of LecA binding to H1299 cells (LecA [3]; 250 nM inhibitor)	Decrease of LecA binding to H1299 cells (LecA [3]; 1 μM inhibitor)	Inhibition of lectin binding to the cells (LecA [3])
O=C(/C=C/c1ccc(O[C@@H]2O[C@H](CO)[C@H](O)[C@H](O)[C@H]2O)cc1)Nc1ccc(OCCOc2ccc(NC(=O)/C=C/c3ccc(O[C@@H]4O[C@H](CO)[C@H](O)[C@H](O)[C@H]4O)cc3)cc2)cc1 [Compound D1]	40.7 ± 3 nM	0.00249 ± 0.00028 s⁻¹	61.1 ± 2.5 x10^3/Ms	128	5.6 ± 3.1 µM	–	–	–	–
COc1ccc(NC(=O)CCc2ccc(O[C@@H]3O[C@H](CO)[C@H](O)[C@H](O)[C@H]3O)cc2)cn1 [Compound G2]	2970 ± 80 nM	–	–	1	14.3 ± 7.2 µM	2800 nM and 2790 nM	–	–	–
O=C(CCc1ccc(O[C@@H]2O[C@H](CO)[C@H](O)[C@H](O)[C@H]2O)cc1)Nc1ccc(OCCOc2ccc(NC(=O)CCc3ccc(O[C@@H]4O[C@H](CO)[C@H](O)[C@H](O)[C@H]4O)cc3)cn2)nc1 [Compound H2]	9.9 ± 0.1 nM	0.00141 ± 5e-05 s⁻¹	142 ± 3.5 x10^3/Ms	300	4.8 ± 2.2 µM	540 nM	16%	50%	complete inhibition
O=C(CCc1ccc(O[C@@H]2O[C@H](CO)[C@H](O)[C@H](O)[C@H]2O)cc1)Nc1ccc(OCCOc2ccc(NC(=O)CCc3ccc(O[C@@H]4O[C@H](CO)[C@H](O)[C@H](O)[C@H]4O)cc3)cc2)cc1 [Compound D2]	23.1 ± 0.3 nM	0.00284 ± 6e-05 s⁻¹	123 ± 4.1 x10^3/Ms	233	4.5 ± 1.8 µM	–	–	–	–
Cc1ccc(NC(=O)CCc2ccc(O[C@@H]3O[C@H](CO)[C@H](O)[C@H](O)[C@H]3O)cc2)cc1S(=O)(=O)O [Compound K2]	3790 ± 100 nM	–	–	1	14.4 ± 3.6 µM	1900 nM and 1890 nM	–	–	–
O=C(CCc1ccc(O[C@@H]2O[C@H](CO)[C@H](O)[C@H](O)[C@H]2O)cc1)Nc1ccc(CCc2ccc(NC(=O)CCc3ccc(O[C@@H]4O[C@H](CO)[C@H](O)[C@H](O)[C@H]4O)cc3)cc2S(=O)(=O)O)c(S(=O)(=O)O)c1 [Compound L2]	32.8 ± 1.5 nM	0.00707 ± 0.0011 s⁻¹	215 ± 29 x10^3/Ms	115	4.6 ± 2.2 µM	560 nM	more than 30%	50%	complete inhibition
O=C(/C=C/c1ccc(O[C@@H]2O[C@H](CO)[C@H](O)[C@H](O)[C@H]2O)cc1)Nc1ccc(OCCOc2ccc(NC(=O)/C=C/c3ccc(O[C@@H]4O[C@H](CO)[C@H](O)[C@H](O)[C@H]4O)cc3)cn2)nc1 [Compound H1]	13.7 ± 1.6 nM	0.00165 ± 0.00012 s⁻¹	121 ± 6.8 x10^3/Ms	217	8 ± 4.3 µM	–	–	–	–
